From patent publication US6565895B2, “Bismuth compounds for the treatment and prevention of mucositis” (GelTex Pharmaceuticals, Inc., priority 2000, dated 2003)

Test system: oral mucositis in a hamster model following irradiation
Experiment: Hamster model of radiation-induced oral mucositis (mucositis score)
Format: in vivo, Golden Syrian hamsters
[1] = solution containing 17.5 mg/ml, 0.5 ml into left cheek pouch three times per day, Day 0 to Day 19, single radiation dose 35-38 Gy
[2] = solution containing 3.5 mg/ml, 0.5 ml into left cheek pouch three times per day, Day 0 to Day 19, single radiation dose 35-38 Gy

From the text: Briefly, male Golden Syrian hamsters (Charles River Laboratories), aged 5 to 6 weeks, with body weights of approximately 90 g at project commencement, were used. Animals were individually numbered using an ear punch and housed in small groups of approximately 6 animals per cage. Animals were acclimatized for at least one week prior to project commencement. During this period, the animals were observed daily in order to reject animals that presented in poor condition. Animals were fed with a standard hamster chow and water ad libitum.
Mucositis was induced using an acute radiation protocol. A single dose of radiation (35-38 Gy/dose) was administered to all animals on Day 0. Radiation was generated with a 250 kilovolt potential (15 mA) source at a focal distance of 50 cm, hardened with a 0.35 mm Cu filtration system. […] Prior to irradiation, animals were anesthetized with an intraperitoneal injection of sodium pentobarbital (80 mg/kg). The left buccal pouch was everted, fixed and isolated using a lead shield.
All animals were dosed with test material three times per day. A needleless tuberculin syringe containing 0.5 ml of the test compound was inserted into the left cheek pouch and the drug deposited into the pouch. Dosing began on Day 0 and continued until Day 19.
The mucositis score, weight change and survival were measured as outcomes in this study. For the evaluation of mucositis, the animals were anesthetized with inhalation anesthetics, and the left pouch everted. Mucositis was scored visually by comparison to a validated photographic scale, ranging from 0 for normal to 5 for severe ulceration (clinical scoring). In descriptive terms, this scale is defined as follows:
A score of 1-2 is considered to represent a mild stage of the disease, whereas a score of 3-5 is considered to indicate moderate to severe mucositis. Following visual scoring, a photograph was taken of each animal's mucosa using a standardized technique. At the conclusion of the experiment, all films were developed and the photographs randomly numbered. At least two independent trained observers graded the photographs in blinded fashion using the above-described scale (blinded scoring).

Molecule	improvement in mucositis scores (time with score of three or higher) [1]	improvement in mucositis scores (time with score of three or higher) [2]	also measured
N[C@@H](CCC(=O)N[C@@H](CS)C(=O)NCC(=O)O)C(=O)O.[Bi] [bismuth glutathione, Bismuth Glutathione]	–	–	improvement in mucositis scores (time with score of three or higher) (hamster, in vivo): showed improvement in their mucositis scores
bismuth subgallate	did not show a statistically significant improvement	–	–
O=C([O-])CC(O)(CC(=O)[O-])C(=O)[O-].[Bi+3] [bismuth citrate]	–	showed improvement in their mucositis scores	–
bismuth (III) oxide	did not show a statistically significant improvement	–	–
O=C([O-])c1ccccc1.O=C([O-])c1ccccc1.O=C([O-])c1ccccc1.[Bi+3] [bismuth benzoate, Bismuth Benzoate]	–	showed improvement in their mucositis scores	–
O=C([O-])[C@H]([O-])[C@@H]([O-])C(=O)[O-].[Bi+3].[K+] [bismuth potassium tartrate]	did not show a statistically significant improvement	–	–
Bismuth Ascorbate	–	–	improvement in mucositis scores (time with score of three or higher) (solution containing 1.75 mg/ml, 0.5 ml into left cheek pouch three times per day, Day 0 to Day 19, single radiation dose 35-38 Gy): showed improvement in their mucositis scores
O=C([O-])c1ccccc1[O-].[Bi+3].[OH-] [bismuth salicylate basic]	–	showed improvement in their mucositis scores	–
O=C([O-])[O-].[Bi+3].[Bi+3].[O-2].[O-2] [bismuth subcarbonate]	did not show a statistically significant improvement	–	–
O=[N+]([O-])[O-].O=[N+]([O-])[O-].O=[N+]([O-])[O-].O=[N+]([O-])[O-].[Bi+3].[Bi+3].[Bi+3].[Bi+3].[Bi+3].[O-2].[OH-].[OH-].[OH-].[OH-].[OH-].[OH-].[OH-].[OH-].[OH-] [bismuth subnitrate]	did not show a statistically significant improvement	–	–
